Measured values from patent US12655116B2, “Substituted isophthalic acid diamides” (Bayer Aktiengesellschaft, priority 2020, dated 2026).

Assays:
ABUTH [1] = test: Post-emergence herbicidal action against ABUTH; format: in vivo, Abutilon theophrasti; settings: Abutilon theophrasti, 504 h, visual assessment about 3 weeks after treatment vs untreated controls; for pest or weed control at 20 g/ha: dosage 20 g/ha
How it was run: (§1)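 Herbicidal effect was scored visually in percent after about 3 weeks in the greenhouse. Plants had been raised in sandy loam and treated post-emergence at the one-leaf stage with formulated compound at 600 to 800 l/ha water plus 0.2% wetting agent.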

ALOMY [2] = test: Pre-emergence herbicidal action against ALOMY; format: in vivo, Alopecurus myosuroides; settings: pre-emergence; for pest or weed control at 80 g/ha / pest or weed control at 20 g/ha: Alopecurus myosuroides, 504 h; for pest or weed control at 20 g/ha: scored visually after 3 weeks, 100% = plants have died, 0% = like control plants
How it was run: (§2)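 Herbicidal effect was assessed 3 weeks after treatment by visual comparison with untreated controls, 100% denoting dead plants. Aqueous WP or EC preparations had been applied at 600 to 800 l/ha with 0.2% wetting agent to the soil covering freshly sown seeds.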

VIOTR [3] = test: Pre-emergence herbicidal action against VIOTR; format: in vivo, Viola tricolor; settings: for pest or weed control at 80 g/ha: Viola tricolor, 504 h
How it was run: as §2

ECHCG [4] = test: Pre-emergence herbicidal action against ECHCG; format: in vivo, Echinochloa crus-galli
How it was run: as §2

PHBPU [5] = test: Pre-emergence herbicidal action against PHBPU; format: in vivo, Pharbitis purpurea; settings: dosage 80 g/ha; for pest or weed control at 80 g/ha: Ipomoea purpurea, 504 h
How it was run: as §2

MATIN = test: Pre-emergence herbicidal action against MATIN; format: in vivo, Matricaria inodora; settings: for pest or weed control at 20 g/ha / pest or weed control at 80 g/ha: Tripleurospermum inodorum, 504 h
How it was run: as §2

AMARE [6] = test: Post-emergence herbicidal action against AMARE; format: in vivo, Amaranthus retroflexus; settings: 20 g/ha, visual assessment about 3 weeks after treatment, 100% = plants have died, 0% = like control plants; for pest or weed control at 20 g/ha: Amaranthus retroflexus, 504 h
How it was run: as §1

AMARE [7] = test: Pre-emergence herbicidal action against AMARE; format: in vivo, Amaranthus retroflexus; settings: for pest or weed control at 20 g/ha / pest or weed control at 80 g/ha: Amaranthus retroflexus, 504 h
How it was run: as §2

ECHCG [8] = test: Post-emergence herbicidal action against ECHCG; format: in vivo, Echinochloa crus-galli
How it was run: as §1

VIOTR [9] = test: Post-emergence herbicidal action against VIOTR; format: in vivo, Viola tricolor; settings: Viola tricolor, 504 h, 20 g/ha
How it was run: as §1

ALOMY [10] = test: Post-emergence herbicidal action against ALOMY; format: in vivo, Alopecurus myosuroides; settings: Alopecurus myosuroides, 504 h, visual assessment about 3 weeks after treatment vs untreated controls
How it was run: as §1

PHBPU [11] = test: Post-emergence herbicidal action against PHBPU; format: in vivo, Pharbitis purpurea; settings: dosage 20 g/ha
How it was run: as §1

ABUTH [12] = test: Pre-emergence herbicidal action against ABUTH; format: in vivo, Abutilon theophrasti
How it was run: as §2

VERPE = test: Pre-emergence herbicidal action against VERPE; format: in vivo, Veronica persica; settings: dosage 80 g/ha; for pest or weed control at 80 g/ha: Veronica persica, 504 h
How it was run: as §2

POLCO = test: Pre-emergence herbicidal action against POLCO; format: in vivo, Polygonum convolvulus; settings: dosage 80 g/ha; for pest or weed control at 80 g/ha: Fallopia convolvulus, 504 h
How it was run: as §2

AVEFA = test: Pre-emergence herbicidal action against AVEFA; format: in vivo, Avena fatua; settings: Avena fatua, 504 h, pre-emergence
How it was run: as §2

SETVI = test: Pre-emergence herbicidal action against SETVI; format: in vivo, Setaria viridis; settings: dosage 80 g/ha
How it was run: as §2

DIGSA = test: Pre-emergence herbicidal action against DIGSA; format: in vivo, Digitaria sanguinalis
How it was run: as §2

[13] = 80 g/ha, scored visually after 3 weeks vs untreated controls (100% = plants have died, 0% = like control plants)
[14] = Echinochloa crus-galli, 504 h, 80 g/ha
[15] = 20 g/ha, scored visually after 3 weeks vs untreated controls, 100% = plants have died, 0% = like control plants
[16] = 80 g/ha, scored visually after 3 weeks vs untreated controls, 100% = plants have died, 0% = like control plants
[17] = Echinochloa crus-galli, 504 h, dosage 20 g/ha
[18] = Abutilon theophrasti, 504 h, 80 g/ha, scored visually after 3 weeks vs untreated controls (100% = plants have died, 0% = like control plants)

## CCCNC(=O)c1c(Br)ccc(C(=O)Nc2nnnn2C)c1Cl [Example 1-184]
ABUTH [1]; dosage 5 g/ha
  pest or weed control at 5 g/ha: 80%
ABUTH [1]
  pest or weed control at 20 g/ha: 80%
ALOMY [2]; [13]
  pest or weed control at 80 g/ha: 100%
ALOMY [2]
  pest or weed control at 20 g/ha: 90%
VIOTR [3]; dosage 80 g/ha
  pest or weed control at 80 g/ha: 90%
ECHCG [4]; [14]
  pest or weed control at 80 g/ha: 100%
PHBPU [5]
  pest or weed control at 80 g/ha: 80%
MATIN; dosage 20 g/ha
  pest or weed control at 20 g/ha: 80%
MATIN; dosage 80 g/ha
  pest or weed control at 80 g/ha: 100%
AMARE [6]
  pest or weed control at 20 g/ha: 100%
AMARE [7]; [15]
  pest or weed control at 20 g/ha: 100%
AMARE [7]; [16]
  pest or weed control at 80 g/ha: 100%
ECHCG [8]; [17]
  pest or weed control at 20 g/ha: 100%
VIOTR [9]
  pest or weed control at 20 g/ha: 90%
ALOMY [10]; dosage 5 g/ha
  pest or weed control at 5 g/ha: 80%
ALOMY [10]; dosage 20 g/ha
  pest or weed control at 20 g/ha: 80%
PHBPU [11]; Ipomoea purpurea, 504 h
  pest or weed control at 20 g/ha: 80%
ABUTH [12]; [18]
  pest or weed control at 80 g/ha: 100%
VERPE
  pest or weed control at 80 g/ha: 90%
POLCO
  pest or weed control at 80 g/ha: 80%

## Cn1nnnc1NC(=O)c1ccc(C(F)(F)F)c(C(=O)NCC(F)(F)F)c1Br [Example 1-211]
ABUTH [1]
  pest or weed control at 20 g/ha: 80%
ALOMY [2]; [13]
  pest or weed control at 80 g/ha: 100%
ALOMY [2]
  pest or weed control at 20 g/ha: 90%
VIOTR [3]; dosage 80 g/ha
  pest or weed control at 80 g/ha: 100%
AVEFA; 80 g/ha
  pest or weed control at 80 g/ha: 90%
AVEFA; 20 g/ha, scored visually after 3 weeks, 100% = plants have died, 0% = like control plants
  pest or weed control at 20 g/ha: 80%
ECHCG [4]; Echinochloa crus-galli, 504 h, 20 g/ha
  pest or weed control at 20 g/ha: 90%
ECHCG [4]; [14]
  pest or weed control at 80 g/ha: 100%
SETVI; Setaria viridis, 504 h
  pest or weed control at 80 g/ha: 100%
PHBPU [5]
  pest or weed control at 80 g/ha: 80%
MATIN; dosage 20 g/ha
  pest or weed control at 20 g/ha: 90%
MATIN; dosage 80 g/ha
  pest or weed control at 80 g/ha: 100%
AMARE [6]
  pest or weed control at 20 g/ha: 90%
AMARE [7]; [15]
  pest or weed control at 20 g/ha: 100%
AMARE [7]; [16]
  pest or weed control at 80 g/ha: 100%
ECHCG [8]; Echinochloa crus-galli, 504 h, dosage 5 g/ha
  pest or weed control at 5 g/ha: 80%
ECHCG [8]; [17]
  pest or weed control at 20 g/ha: 90%
ABUTH [12]; [18]
  pest or weed control at 80 g/ha: 100%
ABUTH [12]; Abutilon theophrasti, 504 h, dosage 20 g/ha, scored visually after 3 weeks vs untreated controls, 100% = plants have died, 0% = like control plants, read-out: Pre-emergence action against ABUTH (herbicidal activity in percent)
  pest or weed control at 20 g/ha: 100%
VERPE
  pest or weed control at 80 g/ha: 100%
POLCO
  pest or weed control at 80 g/ha: 90%

## CCn1nnnc1NC(=O)c1ccc(C(F)(F)F)c(C(=O)NCCOC)c1Cl [Example 2-138]
ALOMY [2]; [13]
  Pre-emergence action against ALOMY (herbicidal activity): 90%
VIOTR [3]; dosage 20 g/ha
  Pre-emergence action against VIOTR in %: 90%
VIOTR [3]; dosage 80 g/ha
  Pre-emergence action against VIOTR in %: 100%
ECHCG [4]; 80 g/ha
  Pre-emergence action against ECHCG in %: 90%
SETVI
  Pre-emergence action against SETVI in %: 80%
PHBPU [5]
  Pre-emergence action against PHBPU in %: 80%
MATIN; dosage 20 g/ha
  Pre-emergence action against MATIN in %: 90%
MATIN; dosage 80 g/ha
  Pre-emergence action against MATIN in %: 100%
AMARE [6]
  Post-emergence action at 20 g/ha against AMARE in %: 90%
AMARE [7]; [15]
  Pre-emergence action against AMARE in %: 100%
AMARE [7]; [13]
  Pre-emergence action against AMARE in %: 100%
ECHCG [8]; dosage 5 g/ha
  Post-emergence action against ECHCG in %: 80%
ECHCG [8]; dosage 20 g/ha
  Post-emergence action against ECHCG in %: 90%
PHBPU [11]
  Post-emergence action against PHBPU in %: 80%
ABUTH [12]; [13]
  Pre-emergence action against ABUTH (herbicidal activity): 100%
ABUTH [12]; dosage 20 g/ha, scored visually after 3 weeks vs untreated controls, 100% = plants have died, 0% = like control plants
  Pre-emergence action against ABUTH (herbicidal activity in percent): 80%
DIGSA; dosage 20 g/ha
  Pre-emergence action against DIGSA in %: 100%
DIGSA; dosage 80 g/ha
  Pre-emergence action against DIGSA in %: 100%
VERPE
  Pre-emergence action against VERPE in %: 100%
POLCO
  Pre-emergence action against POLCO in %: 90%
